Source: patent US8715747B2, “Biocomposition stimulant of the immune system, anti-tumor and anti-HIV” (Pharmabrand S.A., priority 2007, dated 2014)

Key:
S. aureus = assay: Microbiological test for bactericidal properties (inhibition halo), S. aureus; type: cell-based, Staphylococcus aureus; details: Gentamicin 2 μg/ml
From the text: Microbiological Tests to Determine Bactericidal Properties of the Aqueous and Ethanolic Extracts of the Composition of the Invention:
The inhibitory halo of FT001 registered a diameter of approximately 12 mm.

[1] = system: prostate cancer with node metastases and invasion of the bladder floor; assay: Clinical observation: patient with prostate cancer, tumor markers PSA and CEA; type: in vivo, human; parameters: PSA: unit not given beside the values
From the text: The patient is an individual diagnosed with prostate cancer with node metastases and invasion of the bladder floor. […] In March 2003, PSA level was 1096, the carcinoembryonic antigen was 6.85.
Carcinoembryonic antigen is a substance that usually only appears during fetal development and reappears again in adults who develop certain types of cancer: colon, rectum, stomach, esophagus, liver, pancreas, bladder, and breast (female mammary gland), lung and prostate as well.
The test of carcinoembryonic antigen (CEA) plays an important role in monitoring patient outcomes with cancer and metastasis. Even though it can not be considered a final marker, it serves as a useful guide. Its constant increase means that therapy has not achieved positive results. A decrease indicates a trend towards regression of the lesion.
The patient starts with a daily dose of 250 mg of Flutamide (fluxus) until reaching a PSA of 252. After 4 months, PSA reaches 525. From this point, the patient receives a double dose of Flutamide until registering a PSA of 256. CEA level was 5.84. After three months PSA rises again to 580. The tumor becomes resistant to hormone therapy. […] At first, PSA level was 600 and CEA level was 8.86. […] CEA level has dropped to 6.51. PSA level has changed to 700, a much better value if compared to the resistance to flutamide.
The patient underwent surgery to improve the diameter of the urethra and to remove the catheter that started to produce frequent bleeding. After the surgery, the patient suffered a massive infection due to Escherichia coli bacteria. They received anti-bacterial treatment with good results. PSA reached 698. After the surgery, the administration of the composition of the invention re-started, and after 2 months, PSA dropped to 88 and CEA to 5.04. During the following 2 months, PSA level reached 10 ng/ml level. After 70 days, PSA registers 4 ng/ml levels, which are considered normal values. CEA level was 3.97. Currently, the patient has returned to work (August, 2005). They had also had dialysis due to complications during the surgery. The patient has been taking the composition in daily basis during the next two years, maintaining a good health condition. Despite the three dialysis sessions per week that they are receiving, […] general state is good; they manage to do everything by themself and exercises every morning; PSA is 15 but CEA has always been 2.5 ng/ml. During these two years (March, 2007), they have kept a strict diet and has not received any other type of anti-tumor therapy.

Row | Compound | halo of the lower standard (S. aureus) [mm] | PSA ([1]; 250 mg Flutamide daily, after 4 months) | PSA ([1]; daily dose of 250 mg Flutamide, start PSA 1096) | CEA level ([1]; double dose of Flutamide) | PSA ([1]; double dose of Flutamide) | PSA ([1]; double dose of Flutamide, after three months, PSA rises again)
1 | Gentamicin | 12.2 | – | – | – | – | –
2 | CC(C)C(=O)Nc1ccc([N+](=O)[O-])c(C(F)(F)F)c1 [Flutamide] | – | 525 | 252 | 5.84 | 256 | 580
